For 18 molecules, Activity and IC50 results are on record in ChEMBL document CHEMBL6087479, “Discovery of a Potent and Selective GSPT1 Molecular Glue Degrader for the Treatment of Castration-Resistant Prostate Cancer” (J Med Chem, 2025).

As a reminder, the pIC50 is the negative decadic logarithm of the IC50, by convention in mol/L.

In experiment [1] the target is Protein cereblon/Bromodomain-containing protein 4 (Homo sapiens) (UniProt O60885+Q96SW2). The experiment in a line: Molecular glue degradation activity at CRBN/BRD4 in human 22Rv1 cells at 12 to 1000 nM incubated for 6 hrs by Immunoblotting analysis. In kind it is cell-based. Particulars: dose 12-1000 nM.
Experiment [2] concerns CWR22R. As to the kind of experiment: cells. The conditions noted are these: Homo sapiens, 22Rv1, 96 h.
Description: Antiproliferative activity against human 22Rv1 cells assessed as inhibition of cell proliferation incubated for 96 hrs by CellTiter-Glo assay
For a further experiment, the system named is LNCaP. The experiment in a line: cells. The conditions noted are these: Homo sapiens, 96 h.
The subject of another experiment is LNCaP C4-2B. As to the kind of experiment: cells. Particulars: Homo sapiens, 96 h.
Experiment [3] concerns the target Protein cereblon/Eukaryotic peptide chain release factor GTP-binding subunit ERF3A (Homo sapiens) (UniProt Q96SW2+P15170). The experiment in a line: Protac activity at CRBN/GSPT1 in human 22Rv1 cells assessed as GSPT1 degradation at 12 to 1000 nM incubated for 6 hrs by Western blotting analysis. Particulars: dose 12-1000 nM. Format: cell-based.
The test system of experiment [4] is CWR22R. The experiment in a line: Downregulation of GSPT1 protein level in human 22Rv1 cells at 500 nM incubated for 6 hrs by mass spectrometry-based label-free quantitative proteomics analysis. Format: functional, cell-based.
Experiment [5] relates to CWR22R. As to the kind of experiment: Downregulation of BRD2 protein level in human 22Rv1 cells at 500 nM incubated for 6 hrs by mass spectrometry-based label-free quantitative proteomics analysis. Format: functional, cell-based.
The test system of experiment [6] is CWR22R. As to the kind of experiment: Antiproliferative activity against human 22Rv1 cells assessed as inhibition of cell proliferation by CellTiter-Glo assay. On the technique in general: Cellular ATP, detected with luciferase, serves as a proxy for viable cell number.

pIC50: −log10 of the molar value. Activity calls are given as the source filed them. The calls are words filed in the database; no cut-off is given here.

Chain of Protein cereblon/Bromodomain-containing protein 4 (Homo sapiens) (Q96SW2 whole entry, looked up, other chains not shown): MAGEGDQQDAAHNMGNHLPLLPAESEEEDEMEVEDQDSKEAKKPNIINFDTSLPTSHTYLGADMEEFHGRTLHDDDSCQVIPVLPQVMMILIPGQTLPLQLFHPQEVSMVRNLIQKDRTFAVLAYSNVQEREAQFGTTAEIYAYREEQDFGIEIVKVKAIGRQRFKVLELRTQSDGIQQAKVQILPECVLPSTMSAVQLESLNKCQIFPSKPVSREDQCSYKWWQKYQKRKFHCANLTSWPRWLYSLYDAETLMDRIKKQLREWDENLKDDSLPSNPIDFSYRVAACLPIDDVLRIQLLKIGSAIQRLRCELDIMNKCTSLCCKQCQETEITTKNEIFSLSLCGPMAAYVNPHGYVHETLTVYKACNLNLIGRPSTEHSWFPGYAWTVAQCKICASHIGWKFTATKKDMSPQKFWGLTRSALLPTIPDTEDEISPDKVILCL
Chain of Protein cereblon/Eukaryotic peptide chain release factor GTP-binding subunit ERF3A (Homo sapiens) (P15170 whole entry, looked up): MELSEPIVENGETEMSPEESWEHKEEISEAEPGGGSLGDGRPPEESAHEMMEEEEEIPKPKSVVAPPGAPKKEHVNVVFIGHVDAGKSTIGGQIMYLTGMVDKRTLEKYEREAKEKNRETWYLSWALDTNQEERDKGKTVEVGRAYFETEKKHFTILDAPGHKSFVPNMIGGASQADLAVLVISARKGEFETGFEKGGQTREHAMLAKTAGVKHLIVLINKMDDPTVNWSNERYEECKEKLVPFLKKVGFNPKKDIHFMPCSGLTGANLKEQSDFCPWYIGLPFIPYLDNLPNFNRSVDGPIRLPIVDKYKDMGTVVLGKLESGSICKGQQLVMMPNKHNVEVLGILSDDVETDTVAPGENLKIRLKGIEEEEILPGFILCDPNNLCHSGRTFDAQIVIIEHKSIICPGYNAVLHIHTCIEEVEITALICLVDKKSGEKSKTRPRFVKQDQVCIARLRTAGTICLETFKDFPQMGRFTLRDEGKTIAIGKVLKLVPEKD
Chain of Protein cereblon/Eukaryotic peptide chain release factor GTP-binding subunit ERF3A (Homo sapiens) (Q96SW2 whole entry, looked up): as the sequence (Q96SW2 whole entry, looked up, other chains not shown) above
Description for LNCaP C4-2B: Antiproliferative activity against human LNCaP C4-2B cells assessed as inhibition of cell proliferation incubated for 96 hrs by CellTiter-Glo assay

Consider `COc1ccc(Br)cc1S(=O)(=O)Nc1cc2c(C)noc2cc1OCC(=O)NCCCCCCNc1cccc2c1C(=O)N(C1CCC(=O)NC1=O)C2=O` (stereo unspecified), for which the outcome in experiment [1] was inactive. Further, the pIC50 in the experiment with CWR22R [2] is 6.04; with LNCaP, 5.60; with LNCaP C4-2B it was less than 5.00. Also, in experiment [3], the Activity entry is “Active; Moderate Effect Of Degradation Observed”.

With `COc1ccc(Br)cc1S(=O)(=O)Nc1cc2c(C)noc2cc1OCC(=O)NCCCCCNc1ccc2c(c1)C(=O)N(C1CCC(=O)NC1=O)C2=O` (stereo unspecified), the negative-log IC50 (pIC50) with CWR22R [2], in the experiment with LNCaP and in the experiment with LNCaP C4-2B was less than 5.00 in each case.

Regarding `COc1ccc(Br)cc1S(=O)(=O)Nc1cc2c(C)noc2cc1OCC(=O)NCCCNc1cccc2c1C(=O)N(C1CCC(=O)NC1=O)C2=O` (stereo unspecified), the result in experiment [1] was inactive. The pIC50 in the experiment with CWR22R [2] was 7.59; with LNCaP it was 7.00; in the experiment on LNCaP C4-2B, 6.20. For the same molecule, in experiment [3], the Activity result is “Active; Moderate Effect Of Degradation Observed”.

Regarding `COc1cc2onc(C)c2cc1NS(=O)(=O)c1cc(Br)ccc1OC`, the pIC50 in the experiment on CWR22R [2] is 5.79; in the experiment with LNCaP, 5.60; in the experiment with LNCaP C4-2B, 5.74.

As for `COc1ccc(Br)cc1S(=O)(=O)Nc1cc2c(C)noc2cc1OCC(=O)NCCCCNc1ccc2c(c1)C(=O)N(C1CCC(=O)NC1=O)C2=O` (stereo unspecified), the pIC50 in the experiment on CWR22R [2], with LNCaP and in the experiment with LNCaP C4-2B was less than 5.00 in each case.

In the case of `COc1ccc(Br)cc1S(=O)(=O)Nc1cc2c(C)noc2cc1OCC(=O)NCCNC(=O)COc1cccc2c1C(=O)N(C1CCC(=O)NC1=O)C2=O` (stereo unspecified), the negative logarithm of the IC50 (pIC50) in the experiment with CWR22R [2], with LNCaP and in the experiment on LNCaP C4-2B was less than 5.00 in each case.

For `COc1ccc(Br)cc1S(=O)(=O)Nc1cc2c(C)noc2cc1OCC(=O)NCCCCNc1cccc2c1C(=O)N(C1CCC(=O)NC1=O)C2=O` (stereo unspecified), the result in experiment [1] was inactive. The values for the pIC50 with CWR22R [2], with LNCaP and in the experiment on LNCaP C4-2B were 7.21, 6.95 and 5.85, respectively. In experiment [3], the Activity entry is recorded as “Active; Moderate Effect Of Degradation Observed”.

As to `COc1ccc(Br)cc1S(=O)(=O)Nc1cc2c(C)noc2cc1OCC(=O)NCCCNC(=O)COc1cccc2c1C(=O)N(C1CCC(=O)NC1=O)C2=O` (stereo unspecified), the negative-log IC50 (pIC50) with CWR22R [2], with LNCaP and with LNCaP C4-2B was less than 5.00 throughout.

As for `Cc1sc2c(c1C)C(c1ccc(Cl)cc1)=N[C@@H](CC(=O)NCCCCNC(=O)COc1cccc3c1C(=O)N(C1CCC(=O)NC1=O)C3=O)c1nnc(C)n1-2` (stereo partly specified), in the experiment on CWR22R [4], the outcome was inactive. In addition, the result (in experiment [1]; in the experiment on CWR22R [5]) was Active. The results for the pIC50 with CWR22R [2], in the experiment on LNCaP and in the experiment on LNCaP C4-2B were 5.76, 5.65 and 5.51, respectively.

Turning to `COc1ccc(Br)cc1S(=O)(=O)Nc1cc2c(C)noc2cc1OCC(=O)NCCCNc1ccc2c(c1)C(=O)N(C1CCC(=O)NC1=O)C2=O` (stereo unspecified), the pIC50 is 5.86 in the experiment on CWR22R [2], less than 5.00 in the experiment on LNCaP and less than 5.00 with LNCaP C4-2B.

For the molecule `Nc1cccc2c1C(=O)N(C1CCC(=O)NC1=O)C2=O` (stereo unspecified) [POMALIDOMIDE], the pIC50 in the experiment with CWR22R [2], with LNCaP and with LNCaP C4-2B was less than 5.00 throughout.

Take `O=C1CCC(N2Cc3cc(CNC(=O)C(F)(F)c4ccc(Cl)cc4)ccc3C2=O)C(=O)N1` (stereo unspecified): the negative-log IC50 (pIC50) in the experiment with CWR22R [6] was 7.80.

In the case of `COc1ccc(Br)cc1S(=O)(=O)Nc1cc2c(C)noc2cc1OCC(=O)NCCCCCCNC(=O)COc1cccc2c1C(=O)N(C1CCC(=O)NC1=O)C2=O` (stereo unspecified), the negative-log IC50 (pIC50) in the experiment with CWR22R [2], in the experiment on LNCaP and in the experiment on LNCaP C4-2B was less than 5.00 in each case.

Regarding `COc1ccc(Br)cc1S(=O)(=O)Nc1cc2c(C)noc2cc1OCC(=O)NCCCCCNC(=O)COc1cccc2c1C(=O)N(C1CCC(=O)NC1=O)C2=O` (stereo unspecified), the pIC50 in the experiment on CWR22R [2], in the experiment with LNCaP and in the experiment with LNCaP C4-2B was less than 5.00 in each case.

As for `COc1ccc(Br)cc1S(=O)(=O)Nc1cc2c(C)noc2cc1OCC(=O)NCCNc1ccc2c(c1)C(=O)N(C1CCC(=O)NC1=O)C2=O` (stereo unspecified), the pIC50 in the experiment on CWR22R [2], in the experiment on LNCaP and in the experiment on LNCaP C4-2B was less than 5.00 throughout.

Regarding `COc1ccc(Br)cc1S(=O)(=O)Nc1cc2c(C)noc2cc1OCC(=O)NCCNc1cccc2c1C(=O)N(C1CCC(=O)NC1=O)C2=O` (stereo unspecified), the negative-log IC50 (pIC50) with CWR22R [2], with LNCaP and in the experiment with LNCaP C4-2B was less than 5.00 each time.

Regarding `COc1ccc(Br)cc1S(=O)(=O)Nc1cc2c(C)noc2cc1OCC(=O)NCCCCNC(=O)COc1cccc2c1C(=O)N(C1CCC(=O)NC1=O)C2=O` (stereo unspecified), the pIC50 in the experiment with CWR22R [2], with LNCaP and in the experiment on LNCaP C4-2B was less than 5.00 each time.

Regarding `COc1ccc(Br)cc1S(=O)(=O)Nc1cc2c(C)noc2cc1OCC(=O)NCCCCCCNc1ccc2c(c1)C(=O)N(C1CCC(=O)NC1=O)C2=O` (stereo unspecified), the pIC50 in the experiment with CWR22R [2], with LNCaP and with LNCaP C4-2B was less than 5.00 each time.
